How the values were obtained:
PC-3 cells = test: Inhibition of proliferation: CyQuant PC-3; type: cell-based; conditions: 72 h; PC-3 human prostate carcinoma cells, incubated with compounds for 3 days, CyQuant NF DNA dye
Description: • GFP-4E-BP1 substrate; Invitrogen order no. PV4759 • Lanthascreen Tb-anti-p4E-BP1 (pThr46) Antibody Kit; Invitrogen order no. PV4758 • FRAP1 (mTOR) kinase; Invitrogen order no. […] Preparation of Reagents: Note: Thaw and keep mTOR, the substrate, ATP, and the antibody on ice prior to making working dilutions. Working dilutions of these components can be kept at room temperature for short periods of time the day of use. 1. Add 2 ml of 5× Assay Buffer to 8 ml water to prepare 10 ml of 1× Assay Buffer. Note: The concentration of 1× Assay Buffer is 50 mM HEPES pH 7.5, 0.01% Polysorbate 20, 1 mM EGTA, and 10 mM MnCl2. 2. Prepare Antibody/EDTA Solution by first adding 2.75 n1 of Tb-anti p4E-BP1 Antibody to 2397 n1 of LanthaScreen™ TR-FRET Dilution Buffer. Then, add 100 n1 of 0.5 M EDTA. 3. Prepare 4× Substrate/Enzyme Solution by first adding 72 n1 of GFP-4E-BP1 (22 nM) to 926 n1 of 1× Assay Buffer. Then, add 1.6 n1 of mTOR (0.45 mg/mL). 4. Prepare ATP Solution by adding 3.2 n1 of 10 mM ATP to 1997 n1 of 1× Assay Buffer. Serial Dilution of Inhibitors (16 Point Curve): Note: It is recommended that inhibitors be serially diluted in DMSO, then diluted to a 4× working concentration with 1× Assay Buffer. The below procedure describes dilution of compounds in a 96-well format prior to transfer to a 384-well format for kinase assays. This procedure calls for dilution of the compounds in 2 adjacent columns of a 96-well plate, which upon transfer to a single column of a 384-well plate with an 8-channel pipette will align the samples in order of concentration. 1. Dispense 40 n1 of DMSO to two adjacent columns of a 96 well plate per compound (e.g. columns 1 and 2). 2. Add 10 n1 of inhibitor stock (10 mM) to the first well of the first column (A1) and mix. 3. Remove 10 n1 from A1 and transfer to the adjacent well in the next column (B1) and mix. 4. Remove 10 n1 from B1 and transfer to the next well in the first column (B2) and mix. 5. Repeat this dilution pattern through well H1 and leave the last well (H2) as DMSO only. 6. Remove 4 n1 of diluted compounds and add to 96 n1 of 1× Assay Buffer in a 96-well plate making 4× compound dilutions. Kinase Reaction: 1. Add 2.5 μl of 4× compound dilutions from the first column of the 96-well plate to every other well of column 1 of a 384-well plate with an 8-channel pipette. Repeat for columns 2 and 3. 2. Add 2.5 n1 of 4× compound dilutions from the second column of the 96-well plate to the empty wells of column 1 of the 384-well plate with an 8-channel pipette. Repeat for columns 2 and 3. Note: This procedure aligns the compound dilutions in order of concentration. 3. Add 2.5 n1 of 4× Enzyme/Substrate Solution to all columns 1-6. 4. Preincubate for 30 min. at RT (shaker). 5. Add 5 n1 of ATP Solution to all wells to start reactions. 6. Shake the assay plate on a plate shaker for 30 seconds. 7. Incubate the assay plate for one hour at room temperature (20-25° C.). Stop Step and Fluorescence Detection: 1. Add 10 n1 of Antibody/EDTA Solution to each well in columns 1-9. 2. Shake the assay plate on a plate shaker for 30 seconds. 3. Incubate the assay plate for one hour at room temperature (20-25° C.). 4. Measure the GFP (FRET) and terbium (reference) emission signals on a fluorescence plate reader (e.g. Perkin Elmer Envision). Data Analysis: 1. Calculate the emission ratio for each sample by dividing the GFP (FRET) signal by the terbium (reference) signal. 2. Plot the concentration of each compound versus the emission ratio. Determine the concentration of compound required to reach 50% of the maximum signal (IC50). Determination of IC50 values can be obtained by curve fitting (sigmoidal dose response, variable slope) using Prism software from GraphPad). Inhibition of Proliferation: CyQuant PC-3 Description:
The CyQuant NF assay is based on measurement of cellular DNA content via fluorescent dye binding. Because cellular DNA content is highly regulated, it is closely proportional to cell number. […]

FRAP1 (mTOR) kinase = target: T1, FRAP1 (mTOR) kinase (Homo sapiens, UniProt P42345); test: Inhibition of mTOR-induced p-4E-BP1 phosphorylation (TR-FRET mTOR Activity Kit; Invitrogen); type: biochemical; conditions: 400 nM GFP-4E-BP1 substrate, ~150 ng/mL mTOR, one hour at room temperature
T1 construct: purchased Invitrogen PV4753
T1 sequence (P42345 1360-2549 limits assumed): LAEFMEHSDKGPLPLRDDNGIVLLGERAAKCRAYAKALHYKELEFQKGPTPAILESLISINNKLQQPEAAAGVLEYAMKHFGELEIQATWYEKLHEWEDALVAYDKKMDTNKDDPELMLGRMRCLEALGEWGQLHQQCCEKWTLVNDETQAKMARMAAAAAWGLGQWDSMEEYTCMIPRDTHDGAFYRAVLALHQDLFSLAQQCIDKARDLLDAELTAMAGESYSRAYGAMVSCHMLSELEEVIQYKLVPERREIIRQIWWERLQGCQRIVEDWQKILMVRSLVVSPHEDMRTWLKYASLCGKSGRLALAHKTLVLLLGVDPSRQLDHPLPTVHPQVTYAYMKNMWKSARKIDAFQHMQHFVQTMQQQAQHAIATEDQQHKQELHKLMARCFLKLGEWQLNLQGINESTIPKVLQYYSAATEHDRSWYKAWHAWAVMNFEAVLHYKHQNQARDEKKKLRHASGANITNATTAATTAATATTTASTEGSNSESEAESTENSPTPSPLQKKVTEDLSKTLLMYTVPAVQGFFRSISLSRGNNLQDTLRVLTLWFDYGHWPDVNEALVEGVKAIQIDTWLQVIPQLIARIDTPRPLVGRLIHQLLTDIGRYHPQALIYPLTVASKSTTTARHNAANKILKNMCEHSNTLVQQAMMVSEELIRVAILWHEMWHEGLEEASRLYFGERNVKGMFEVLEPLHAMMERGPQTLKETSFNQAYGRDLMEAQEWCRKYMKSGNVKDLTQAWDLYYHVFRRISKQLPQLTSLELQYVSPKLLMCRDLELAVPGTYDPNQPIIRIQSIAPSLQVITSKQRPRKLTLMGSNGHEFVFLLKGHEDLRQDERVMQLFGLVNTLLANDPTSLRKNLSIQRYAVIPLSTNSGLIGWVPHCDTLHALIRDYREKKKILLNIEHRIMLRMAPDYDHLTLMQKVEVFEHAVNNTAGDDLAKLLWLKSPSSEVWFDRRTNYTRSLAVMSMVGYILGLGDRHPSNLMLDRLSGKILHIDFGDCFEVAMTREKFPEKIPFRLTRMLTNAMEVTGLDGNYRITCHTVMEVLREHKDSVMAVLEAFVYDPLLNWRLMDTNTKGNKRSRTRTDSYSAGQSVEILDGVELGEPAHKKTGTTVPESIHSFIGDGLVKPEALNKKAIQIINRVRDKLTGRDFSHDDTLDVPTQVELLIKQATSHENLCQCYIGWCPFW
Outline: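 LanthaScreen TR-FRET: mTOR with GFP-4E-BP1 substrate in HEPES pH 7.5 buffer with 10 mM MnCl2, compound preincubated 30 min at RT, then ATP added and reacted 1 h at 20-25 °C. Stopped with EDTA plus Tb-anti-p4E-BP1 (pThr46), 1 h; GFP/Tb emission ratio over a 16-point curve, sigmoidal fit for IC50.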

SMILES	EC50 (PC-3 cells) [nM]	IC50 (FRAP1 (mTOR) kinase) [nM]
CCNc1ccc(-c2nn(-c3ccccc3OC)c3c2CCCc2nc(NC(C)=O)sc2-3)cn1 [Example B-78]	249	136
CNc1ccc(-c2nn(-c3cccnc3C)c3c2CCCc2nc(NC(C)=O)sc2-3)cn1 [Example B-139, N-[3-(6-Methylamino-pyridin-3-yl)-1-(2-methyl-pyridin-3-yl)-1,4,5,6-tetrahydro-9-thia-1,2,7-triaza-cyclopent[e]azulen-8-yl]acetamide]	71	21
CC(=O)Nc1nc2c(s1)-c1c(c(-c3ccc(N)nc3)nn1-c1ccccc1F)CCC2 [Example B-62, N-[3-(6-Amino-pyridin-3-yl)-1-(2-fluoro-phenyl)-1,4,5,6-tetrahydro-9-thia-1,2,7-triaza-cyclopenta[e]azulen-8-yl]-acetamide]	47	10
CNc1ccc(-c2nn(-c3ccccc3Cl)c3c2CCCc2nc(NC(C)=O)sc2-3)cn1 [Example B-28, N-[1-(2-Chloro-phenyl)-3-(6-methylamino-pyridin-3-yl)-1,4,5,6-tetrahydro-9-thia-1,2,7-triaza-cyclopenta[e]azulen-8-yl]-acetamide]	70	50
CCNc1ccc(-c2nn(-c3ccccc3)c3c2CCCc2nc(NC(C)=O)sc2-3)cn1 [Example B-122, N-[3-(6-Ethylamino-pyridin-3-yl)-1-phenyl-1,4,5,6-tetrahydro-9-thia-1,2,7-triaza-cyclopenta[e]azulen-8-yl]-acetamide]	79	32
CN(C)C(=O)Nc1nc2c(s1)-c1c(c(-c3ccc(N)nc3)nn1-c1ccccc1)CCC2 [Example B-96, 3-[3-(6-Amino-pyridin-3-yl)-1-phenyl-1,4,5,6-tetrahydro-9-thia-1,2,7-triaza-cyclopenta[e]azulen-8-yl]-1,1-dimethyl-urea]	289	67
CC(=O)Nc1nc2c(s1)-c1c(c(-c3ccc(C)nc3)nn1-c1ccncc1C)CCC2 [Example B-90]	422	118
CN(C)CCCC(=O)Nc1nc2c(s1)-c1c(c(-c3ccc(N)nc3)nn1-c1ccccc1F)CCC2 [Example E-16, N-[3-(6-Amino-pyridin-3-yl)-1-(2-fluoro-phenyl)-1,4,5,6-tetrahydro-9-thia-1,2,7-triaza-cyclopenta[e]azulen-8-yl]-4-dimethylamino-butyramide]	32	13
CNc1ccc(-c2nn(-c3ccccc3C)c3c2CCCc2nc(NC(=O)CCOC)sc2-3)cn1 [Example B-106, 3-Methoxy-N-[3-(6-methylamino-pyridin-3-yl)-1-o-tolyl-1,4,5,6-tetrahydro-9-thia-1,2,7-triaza-cyclopenta[e]azulen-8-yl]-propionamide]	178	69
COCCn1nc(-c2ccc(N)nc2)c2c1-c1sc(NC(=O)N(C)C)nc1CCC2 [Example B-51]	523	187
CCn1nc(-c2ccc(N)nc2)c2c1-c1sc(NC(=O)N(C)C)nc1CCC2 [Example B-35]	408	219
CNc1ccc(-c2nn(CCOC)c3c2CCCc2nc(NC(C)=O)sc2-3)cn1 [Example B-03, N-[1-(2-Methoxy-ethyl)-3-(6-methylamino-pyridin-3-yl)-1,4,5,6-tetrahydro-9-thia-1,2,7-triaza-cyclopenta[e]azulen-8-yl]-acetamide]	263	87
C=CCn1nc(-c2ccc(NCC)nc2)c2c1-c1sc(NC(C)=O)nc1CCC2 [Example B-129]	265	93
CNc1ccc(-c2nn(-c3ccccc3C)c3c2CCCc2nc(NC(=O)CCc4ncc[nH]4)sc2-3)cn1 [Example B-109]	162	49
CCNc1ccc(-c2nn(-c3cccc(OC)c3)c3c2CCCc2nc(NC(C)=O)sc2-3)cn1 [Example B-128]	119	108
CNc1ccc(-c2nn(-c3ccccc3C)c3c2CCCc2nc(NC(=O)N(C)C)sc2-3)cn1 [Example B-46]	447	1200
CC(=O)Nc1nc2c(s1)-c1c(c(-c3ccc(C)nc3)nn1-c1ccccc1C)CCC2 [Example B-11, N-[3-(6-Methyl-pyridin-3-yl)-1-o-tolyl-1,4,5,6-tetrahydro-9-thia-1,2,7-triaza-cyclopent[e]azulen-8-yl]-acetamide]	476	805
CCNc1ccc(-c2nn(-c3ccncc3C)c3c2CCCc2nc(NC(C)=O)sc2-3)cn1 [Example B-77, N-[3-(6-Ethylamino-pyridin-3-yl)-1-(3-methyl-pyridin-4-yl)-1,4,5,6-tetrahydro-9-thia-1,2,7-triaza-cyclopenta[e]azulen-8-yl]-acetamide]	126	34
CNc1ccc(-c2nn(C(C)C)c3c2CCCc2nc(NC(C)=O)sc2-3)cn1 [Example B-05, N-[1-Isopropyl-3-(6-methylamino-pyridin-3-yl)-1,4,5,6-tetrahydro-9-thia-1,2,7-triaza-cyclopenta[e]azulen-8-yl]-acetamide]	95	24
CCNc1ccc(-c2nn(-c3ccccc3CC)c3c2CCCc2nc(NC(C)=O)sc2-3)cn1 [Example B-79]	62	65
CCCn1nc(-c2ccc(N)nc2)c2c1-c1sc(NC(=O)N(C)C)nc1CCC2 [Example B-33]	310	116
C=CCn1nc(-c2ccc(C)nc2)c2c1-c1sc(NC(C)=O)nc1CCC2 [Example B-25]	437	899
CCNc1ccc(-c2nn(-c3ccccc3Cl)c3c2CCCc2nc(NC(C)=O)sc2-3)cn1 [Example B-75]	113	49
COCCC(=O)Nc1nc2c(s1)-c1c(c(-c3ccc(N)nc3)nn1C(C)C)CCC2 [Example B-133, N-[3-(6-Amino-pyridin-3-yl)-1-isopropyl-1,4,5,6-tetrahydro-9-thia-1,2,7-triaza-cyclopenta[e]azulen-8-yl]-3-methoxy-propionamide]	152	65
CN(C)C(=O)Nc1nc2c(s1)-c1c(c(-c3ccc(N)nc3)nn1C1CCN(C3CC3)CC1)CCC2 [Example B-49, 3-[3-(6-Amino-pyridin-3-yl)-1-(1-cyclopropyl-piperidin-4-yl)-1,4,5,6-tetrahydro-9-thia-1,2,7-triaza-cyclopenta[e]azulen-8-yl]-1,1-dimethyl-urea]	156	41
CNc1ccc(-c2nn(-c3ccccc3C)c3c2CCCc2nc(NC(=O)CCC(=O)N(C)C)sc2-3)cn1 [Example B-108]	106	102
